Experiments:
[1] = molecular target: Interleukin-1 receptor-associated kinase 4 (IRAK4) (Homo sapiens, UniProt Q9NWZ3); test: kinase selectivity panel, inhibition of staurosporine binding at a single concentration ([…])
[2] = molecular target: T1, fms-like tyrosine kinase 3 receptor (FLT3) (Homo sapiens, UniProt P36888); test: trFRET inhibition of Red-FL binding to SNAP-FLT3 on HEK293 cells; FL-induced FLT3 phosphorylation in RS4-11 cells (IC50 […]); format: cell-based
T1 construct: SNAP-FLT3 (Lumi4-Tb labelled) in HEK293 cells; endogenous FLT3 in RS4-11 cells

Abl kinase = molecular target: T2, Abl kinase (Homo sapiens, UniProt P00519); test: biochemical; parameters: ExpresS Diversity kinase profile (Eurofins Cerep P10), per cent inhibition; conditions: read-out: Inhibition of reference binding (Table 4)
T2 construct: gene ABL1

CDC2/CDK1 = CDC2/CDK1 (Homo sapiens, UniProt P06493); test: biochemical; parameters: ExpresS Diversity kinase profile (Eurofins Cerep P10), per cent inhibition; conditions: read-out: Inhibition of reference binding (Table 4)
CDK2 = CDK2 (Homo sapiens, UniProt P24941); test: biochemical; parameters: ExpresS Diversity kinase profile (Eurofins Cerep P10), per cent inhibition; conditions: read-out: Inhibition of reference binding (Table 4)
CHK2 = molecular target: T3, CHK2 (Homo sapiens, UniProt O96017); test: biochemical; parameters: ExpresS Diversity kinase profile (Eurofins Cerep P10), per cent inhibition; conditions: read-out: Inhibition of reference binding (Table 4)
T3 construct: gene CHEK2

CaMK2α = molecular target: T4, CaMK2α (Homo sapiens, UniProt Q9UQM7); test: biochemical; parameters: ExpresS Diversity kinase profile (Eurofins Cerep P10), per cent inhibition; conditions: read-out: Inhibition of reference binding (Table 4)
T4 construct: gene CAMK2A

FGFR1 kinase = FGFR1 kinase (Homo sapiens, UniProt P11362); test: biochemical; parameters: ExpresS Diversity kinase profile (Eurofins Cerep P10), per cent inhibition; conditions: read-out: Inhibition of reference binding (Table 4)
FGFR2 kinase = FGFR2 kinase (Homo sapiens, UniProt P21802); test: biochemical; parameters: ExpresS Diversity kinase profile (Eurofins Cerep P10), per cent inhibition; conditions: read-out: Inhibition of reference binding (Table 4)
FGFR3 kinase = FGFR3 kinase (Homo sapiens, UniProt P22607); test: biochemical; parameters: ExpresS Diversity kinase profile (Eurofins Cerep P10), per cent inhibition; conditions: read-out: Inhibition of reference binding (Table 4)
IKKα = molecular target: T5, IKKα (Homo sapiens, UniProt O15111); test: biochemical; parameters: ExpresS Diversity kinase profile (Eurofins Cerep P10), per cent inhibition; conditions: read-out: Inhibition of reference binding (Table 4)
T5 construct: gene CHUK

IRK = molecular target: T6, IRK (Homo sapiens, UniProt P06213); test: biochemical; parameters: ExpresS Diversity kinase profile (Eurofins Cerep P10), per cent inhibition; conditions: read-out: Inhibition of reference binding (Table 4)
T6 construct: gene INSR; insulin receptor kinase

MAPKAPK2 = MAPKAPK2 (Homo sapiens, UniProt P49137); test: biochemical; parameters: ExpresS Diversity kinase profile (Eurofins Cerep P10), per cent inhibition; conditions: read-out: Inhibition of reference binding (Table 4)
MARK1 = MARK1 (Homo sapiens, UniProt Q9P0L2); test: biochemical; parameters: ExpresS Diversity kinase profile (Eurofins Cerep P10), per cent inhibition; conditions: read-out: Inhibition of reference binding (Table 4)
PAK4 = PAK4 (Homo sapiens, UniProt O96013); test: biochemical; parameters: ExpresS Diversity kinase profile (Eurofins Cerep P10), per cent inhibition; conditions: read-out: Inhibition of reference binding (Table 4)
PDGFRβ = molecular target: T7, PDGFRβ (Homo sapiens, UniProt P09619); test: biochemical; parameters: ExpresS Diversity kinase profile (Eurofins Cerep P10), per cent inhibition; conditions: read-out: Inhibition of reference binding (Table 4)
T7 construct: gene PDGFRB

SGK1 = SGK1 (Homo sapiens, UniProt O00141); test: biochemical; parameters: ExpresS Diversity kinase profile (Eurofins Cerep P10), per cent inhibition; conditions: read-out: Inhibition of reference binding (Table 4)
SIK = molecular target: T8, SIK (Homo sapiens, UniProt P57059); test: biochemical; parameters: ExpresS Diversity kinase profile (Eurofins Cerep P10), per cent inhibition; conditions: read-out: Inhibition of reference binding (Table 4)
T8 construct: gene SIK1

c-Met kinase = c-Met kinase (Homo sapiens, UniProt P08581); test: biochemical; parameters: ExpresS Diversity kinase profile (Eurofins Cerep P10), per cent inhibition; conditions: read-out: Inhibition of reference binding (Table 4)
p38α kinase = molecular target: T9, p38α kinase (Homo sapiens, UniProt Q16539); test: biochemical; parameters: ExpresS Diversity kinase profile (Eurofins Cerep P10), per cent inhibition; conditions: read-out: Inhibition of reference binding (Table 4)
T9 construct: gene MAPK14

PRLR-JAK1 = PRLR-JAK1 (Homo sapiens, UniProt P16471); test: cell-based; parameters: PathHunter eXpress functional assay (DiscoverX tkMAX), inhibition of reference ligand response; conditions: read-out: % Inhibition of reference binding (Table 3)
ErbB2-ErbB3 = ErbB2-ErbB3 (Homo sapiens, UniProt P04626+P21860); test: cell-based; parameters: PathHunter eXpress functional assay (DiscoverX tkMAX), inhibition of reference ligand response; conditions: read-out: % Inhibition of reference binding (Table 3)
EphA5 = EphA5 (Homo sapiens, UniProt P54756); test: cell-based; parameters: PathHunter eXpress functional assay (DiscoverX tkMAX), inhibition of reference ligand response; conditions: read-out: % Inhibition of reference binding (Table 3)
TrkC-P75 = molecular target: T10, TrkC-P75 (Homo sapiens, UniProt Q16288); test: cell-based; parameters: PathHunter eXpress functional assay (DiscoverX tkMAX), inhibition of reference ligand response; conditions: read-out: % Inhibition of reference binding (Table 3)
T10 construct: gene NTRK3

c-Ret-GFRα2 = c-Ret-GFRα2 (Homo sapiens, UniProt P07949); test: cell-based; parameters: PathHunter eXpress functional assay (DiscoverX tkMAX), inhibition of reference ligand response; conditions: read-out: % Inhibition of reference binding (Table 3)
TrkB-P75 = molecular target: T11, TrkB-P75 (Homo sapiens, UniProt Q16620); test: cell-based; parameters: PathHunter eXpress functional assay (DiscoverX tkMAX), inhibition of reference ligand response; conditions: read-out: % Inhibition of reference binding (Table 3)
T11 construct: gene NTRK2

TrkA-P75 = molecular target: T12, TrkA-P75 (Homo sapiens, UniProt P04629); test: cell-based; parameters: PathHunter eXpress functional assay (DiscoverX tkMAX), inhibition of reference ligand response; conditions: read-out: % Inhibition of reference binding (Table 3)
T12 construct: gene NTRK1

Chain of PAK4 (O96013 whole entry): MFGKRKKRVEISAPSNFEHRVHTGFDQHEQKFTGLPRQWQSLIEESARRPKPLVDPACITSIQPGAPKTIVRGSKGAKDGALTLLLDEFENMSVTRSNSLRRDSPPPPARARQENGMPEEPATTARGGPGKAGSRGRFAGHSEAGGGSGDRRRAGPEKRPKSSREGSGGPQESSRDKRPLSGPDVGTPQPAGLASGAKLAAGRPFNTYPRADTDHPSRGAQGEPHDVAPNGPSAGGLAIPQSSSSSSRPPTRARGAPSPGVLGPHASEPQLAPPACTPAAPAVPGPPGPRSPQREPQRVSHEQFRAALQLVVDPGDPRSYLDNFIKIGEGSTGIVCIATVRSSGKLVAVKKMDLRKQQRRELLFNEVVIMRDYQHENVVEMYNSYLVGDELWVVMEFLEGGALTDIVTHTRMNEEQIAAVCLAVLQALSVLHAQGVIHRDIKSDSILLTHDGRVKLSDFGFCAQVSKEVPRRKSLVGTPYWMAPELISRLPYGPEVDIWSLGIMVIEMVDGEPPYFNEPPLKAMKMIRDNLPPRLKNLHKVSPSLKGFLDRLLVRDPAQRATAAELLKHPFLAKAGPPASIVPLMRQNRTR
T9 sequence (Q16539 whole entry): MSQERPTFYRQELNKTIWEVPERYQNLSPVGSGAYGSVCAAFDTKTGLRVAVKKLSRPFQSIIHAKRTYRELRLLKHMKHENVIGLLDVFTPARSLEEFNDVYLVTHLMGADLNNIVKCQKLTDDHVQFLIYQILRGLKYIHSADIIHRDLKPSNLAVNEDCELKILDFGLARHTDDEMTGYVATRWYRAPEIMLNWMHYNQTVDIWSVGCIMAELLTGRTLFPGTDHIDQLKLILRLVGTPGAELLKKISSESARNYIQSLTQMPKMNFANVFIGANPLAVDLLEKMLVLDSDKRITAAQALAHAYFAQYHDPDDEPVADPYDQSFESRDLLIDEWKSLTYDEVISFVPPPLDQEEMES
T1 sequence (P36888 27-993): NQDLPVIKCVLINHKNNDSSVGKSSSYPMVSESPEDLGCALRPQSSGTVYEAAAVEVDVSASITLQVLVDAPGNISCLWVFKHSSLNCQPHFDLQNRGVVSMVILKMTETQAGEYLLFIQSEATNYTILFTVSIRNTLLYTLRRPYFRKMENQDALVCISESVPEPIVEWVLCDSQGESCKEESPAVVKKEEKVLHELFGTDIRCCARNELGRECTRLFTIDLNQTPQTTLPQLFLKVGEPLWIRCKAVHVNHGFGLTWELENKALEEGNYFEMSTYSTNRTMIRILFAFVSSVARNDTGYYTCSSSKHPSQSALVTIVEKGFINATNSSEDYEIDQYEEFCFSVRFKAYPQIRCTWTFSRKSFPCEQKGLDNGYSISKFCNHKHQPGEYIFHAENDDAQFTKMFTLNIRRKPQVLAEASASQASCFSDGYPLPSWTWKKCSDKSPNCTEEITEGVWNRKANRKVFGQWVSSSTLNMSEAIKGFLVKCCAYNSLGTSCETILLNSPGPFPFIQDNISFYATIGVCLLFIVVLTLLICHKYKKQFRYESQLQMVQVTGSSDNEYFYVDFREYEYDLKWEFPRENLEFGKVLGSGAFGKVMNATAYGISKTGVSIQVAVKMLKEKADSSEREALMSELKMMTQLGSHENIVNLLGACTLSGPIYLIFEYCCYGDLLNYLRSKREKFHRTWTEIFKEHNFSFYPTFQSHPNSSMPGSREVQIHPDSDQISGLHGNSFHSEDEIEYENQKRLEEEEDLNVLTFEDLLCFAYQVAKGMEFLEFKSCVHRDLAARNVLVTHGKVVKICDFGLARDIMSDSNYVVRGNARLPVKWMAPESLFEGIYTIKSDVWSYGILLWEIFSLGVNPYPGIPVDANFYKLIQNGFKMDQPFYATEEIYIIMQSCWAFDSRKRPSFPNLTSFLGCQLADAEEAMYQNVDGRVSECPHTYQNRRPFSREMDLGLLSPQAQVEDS
Chain of MAPKAPK2 (P49137 whole entry): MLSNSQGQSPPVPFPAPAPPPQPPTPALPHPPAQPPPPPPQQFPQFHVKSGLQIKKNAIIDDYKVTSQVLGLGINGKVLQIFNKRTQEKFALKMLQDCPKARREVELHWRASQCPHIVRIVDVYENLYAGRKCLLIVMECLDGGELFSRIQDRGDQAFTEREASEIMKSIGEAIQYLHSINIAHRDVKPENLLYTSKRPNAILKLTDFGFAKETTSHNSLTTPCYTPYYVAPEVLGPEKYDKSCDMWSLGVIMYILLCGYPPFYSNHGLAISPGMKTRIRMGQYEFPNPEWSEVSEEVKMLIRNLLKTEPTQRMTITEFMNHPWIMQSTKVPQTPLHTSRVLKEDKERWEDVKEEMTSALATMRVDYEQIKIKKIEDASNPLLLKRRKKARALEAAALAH
T3 sequence (O96017 whole entry): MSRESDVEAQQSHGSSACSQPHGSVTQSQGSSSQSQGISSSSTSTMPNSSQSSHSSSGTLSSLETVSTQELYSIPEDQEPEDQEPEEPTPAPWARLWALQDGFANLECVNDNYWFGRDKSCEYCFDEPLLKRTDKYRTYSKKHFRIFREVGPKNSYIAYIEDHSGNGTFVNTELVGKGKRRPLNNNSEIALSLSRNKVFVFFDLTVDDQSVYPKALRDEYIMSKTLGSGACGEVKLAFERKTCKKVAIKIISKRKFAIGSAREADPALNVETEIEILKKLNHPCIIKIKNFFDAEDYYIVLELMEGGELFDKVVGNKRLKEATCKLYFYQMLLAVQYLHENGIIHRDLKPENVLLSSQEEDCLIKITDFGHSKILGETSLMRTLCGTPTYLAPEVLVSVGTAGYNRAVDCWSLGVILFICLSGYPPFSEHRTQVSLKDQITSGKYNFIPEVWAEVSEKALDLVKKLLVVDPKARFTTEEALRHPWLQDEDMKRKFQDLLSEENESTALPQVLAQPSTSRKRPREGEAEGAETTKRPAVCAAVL
T4 sequence (Q9UQM7 whole entry): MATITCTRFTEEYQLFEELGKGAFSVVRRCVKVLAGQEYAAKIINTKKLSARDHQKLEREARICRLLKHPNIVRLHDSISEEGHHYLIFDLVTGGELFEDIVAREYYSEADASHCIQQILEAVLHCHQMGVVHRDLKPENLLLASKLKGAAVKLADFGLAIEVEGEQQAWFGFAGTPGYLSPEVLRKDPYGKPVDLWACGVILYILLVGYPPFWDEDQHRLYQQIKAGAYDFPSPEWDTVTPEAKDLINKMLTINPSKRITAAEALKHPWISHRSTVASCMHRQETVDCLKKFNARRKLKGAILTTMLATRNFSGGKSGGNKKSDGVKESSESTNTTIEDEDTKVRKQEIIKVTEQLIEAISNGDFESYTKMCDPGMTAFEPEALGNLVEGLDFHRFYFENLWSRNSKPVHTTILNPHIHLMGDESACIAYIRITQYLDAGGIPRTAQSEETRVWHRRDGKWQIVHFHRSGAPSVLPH
T6 sequence (P06213 whole entry): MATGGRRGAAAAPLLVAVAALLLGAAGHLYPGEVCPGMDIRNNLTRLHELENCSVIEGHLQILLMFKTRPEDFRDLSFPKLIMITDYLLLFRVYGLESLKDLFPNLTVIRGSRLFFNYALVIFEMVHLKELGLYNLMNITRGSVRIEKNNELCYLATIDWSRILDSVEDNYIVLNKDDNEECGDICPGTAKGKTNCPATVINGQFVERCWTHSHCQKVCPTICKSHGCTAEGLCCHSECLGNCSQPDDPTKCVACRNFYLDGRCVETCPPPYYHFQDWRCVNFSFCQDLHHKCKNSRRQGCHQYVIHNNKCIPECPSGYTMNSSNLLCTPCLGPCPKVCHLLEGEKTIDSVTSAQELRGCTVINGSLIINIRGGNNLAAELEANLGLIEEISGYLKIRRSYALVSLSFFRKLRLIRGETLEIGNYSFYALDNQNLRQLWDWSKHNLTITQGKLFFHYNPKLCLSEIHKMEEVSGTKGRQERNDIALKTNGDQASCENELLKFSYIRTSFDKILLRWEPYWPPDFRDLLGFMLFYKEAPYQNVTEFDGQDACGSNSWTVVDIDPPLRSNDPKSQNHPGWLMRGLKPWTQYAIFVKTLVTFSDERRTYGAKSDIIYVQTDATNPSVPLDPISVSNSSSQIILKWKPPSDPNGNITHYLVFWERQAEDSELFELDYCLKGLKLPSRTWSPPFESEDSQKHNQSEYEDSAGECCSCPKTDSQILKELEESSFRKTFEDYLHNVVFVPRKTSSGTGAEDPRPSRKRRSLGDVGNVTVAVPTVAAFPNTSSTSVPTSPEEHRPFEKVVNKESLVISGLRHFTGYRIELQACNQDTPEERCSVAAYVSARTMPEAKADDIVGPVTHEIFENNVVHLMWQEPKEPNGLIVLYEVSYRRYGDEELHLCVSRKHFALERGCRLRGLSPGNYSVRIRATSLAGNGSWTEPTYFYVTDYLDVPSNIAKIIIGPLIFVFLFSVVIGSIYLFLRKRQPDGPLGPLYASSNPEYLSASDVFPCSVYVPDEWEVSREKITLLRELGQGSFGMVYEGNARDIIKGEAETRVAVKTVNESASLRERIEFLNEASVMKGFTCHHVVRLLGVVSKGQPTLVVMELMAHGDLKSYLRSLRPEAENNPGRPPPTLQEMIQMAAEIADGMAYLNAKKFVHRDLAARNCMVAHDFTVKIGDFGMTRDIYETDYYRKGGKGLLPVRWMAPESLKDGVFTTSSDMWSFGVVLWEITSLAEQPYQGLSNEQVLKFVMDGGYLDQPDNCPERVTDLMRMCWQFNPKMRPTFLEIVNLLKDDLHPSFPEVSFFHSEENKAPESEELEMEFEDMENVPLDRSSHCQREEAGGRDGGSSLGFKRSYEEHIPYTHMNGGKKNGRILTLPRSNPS

inhibition at 10 µM [1]: 64% | IC50 [2]: 11 µM | inhibition at 10 µM (Abl kinase): 16% | inhibition at 10 µM (CDC2/CDK1): 26% | inhibition at 10 µM (CDK2): 33% | inhibition at 10 µM (CHK2): 6% | inhibition at 10 µM (CaMK2α): 6% | inhibition at 10 µM (FGFR1 kinase): -7% | inhibition at 10 µM (FGFR2 kinase): -2% | inhibition at 10 µM (FGFR3 kinase): 33% | inhibition at 10 µM (IKKα): 20% | inhibition at 10 µM (IRK): -4% | inhibition at 10 µM (MAPKAPK2): 6% | inhibition at 10 µM (MARK1): 13% | inhibition at 10 µM (PAK4): 6% | inhibition at 10 µM (PDGFRβ): -2% | inhibition at 10 µM (SGK1): 16% | inhibition at 10 µM (SIK): -6% | inhibition at 10 µM (c-Met kinase): 0% | inhibition at 10 µM (p38α kinase): 23% | inhibition at 10 µM (PRLR-JAK1): 6.1% | inhibition at 10 µM (ErbB2-ErbB3): 13.6% | inhibition at 10 µM (EphA5): 5% | inhibition at 10 µM (TrkC-P75): 0.6% | inhibition at 10 µM (c-Ret-GFRα2): -4.1% | inhibition at 10 µM (TrkB-P75): -1.3% | inhibition at 10 µM (TrkA-P75): 13.7%
Compound: O=C(Nc1cc(Cl)ccc1O)c1cccc(S(=O)(=O)N2CCCCC2)c1 [compound 66, BDT001]
